In patent US20210254272A1, “TEXTILES HAVING ANTIMICROBIAL PROPERTIES” (Livinguard AG, priority 2015, published 2021):

Experiment: Leaching: 10 grams fabric in 100 milliliters distilled water, 7 days, GC-MS
Type: physicochemical
Experimental: To test for a potential leaching of the antimicrobial agents fixed to the textile material, the following test was performed. A test fabric of polyester 65%/cotton 35% with 210 g/m2 was treated with polyhexamethylenebiguanide (PHMB) 0.5%, silver chloride 0.075%, octadecylaminomethyl trihydroxysilylpropyl ammonium chloride (organosilane) 0.4%, and propiconazole 0.5%
The treated textile material was put into distilled water at a ratio of 1:10. Specifically, a fabric of 10 grams was soaked in 100 milliliters of distilled water. The fabric was incubated in the water for 7 days at room temperature, i.e. between 21 and 25° C.
Following said incubation time, the fabric was removed from the water and the exposed water was tested for the presence of the above five active ingredients using gas chromatography-mass spectrometry (GC-MS).

For [Cl][Ag] [Silver chloride], the “Extracted water Conc, ppm” value was “BDL (BDL-below detection limit Detection limit: 1 parts per million (ppm))”.
